Data reported in PubChem BioAssay (NCI).
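In this assay, cells in 96-well plates receive the compound at five concentrations for 48 hours. Endpoints are linearly interpolated between the surrounding concentrations. GI50: concentration for 50% inhibition of growth. TGI: total growth inhibition.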

Legend:
Assay in all cases: growth of human tumour cells (NCI), 48 h
[1] = system: SF-539 CNS
[2] = system: ACHN renal
[3] = system: SK-MEL-5 melanoma
[4] = system: SF-295 CNS
[5] = system: 786-0 renal
[6] = system: M14 melanoma
[7] = system: HCT-116 colon
[8] = system: SF-268 CNS
[9] = system: HOP-62 NSCLC
[10] = system: DU-145 prostate
[11] = system: SNB-19 CNS
[12] = system: MOLT-4 leukemia
[13] = system: SW-620 colon
[14] = system: BT-549 breast
[15] = system: NCI-H226 lung
[16] = system: CAKI-1 renal
[17] = system: A498 renal
[18] = system: SK-MEL-28 melanoma
[19] = system: SNB-75 CNS
[20] = system: T-47D breast
[21] = system: NCI-H460 lung
[22] = system: LOX IMVI melanoma
[23] = system: COLO 205 colon
[24] = system: MDA-MB-435
[25] = system: HCT-15 colon
[26] = system: RXF 393 renal
[27] = system: HOP-92 NSCLC
[28] = system: A549 NSCLC
[29] = system: OVCAR-3 ovarian
[30] = system: HT29 colon
[31] = system: K-562 leukemia
[32] = system: NCI/ADR-RES ovarian
[33] = system: MDA-MB-231 breast
[34] = system: OVCAR-8 ovarian
[35] = system: OVCAR-5 ovarian
[36] = system: MCF7 breast
[37] = system: MALME-3M melanoma
[38] = system: RPMI-8226 leukemia
[39] = system: OVCAR-4 ovarian
[40] = system: UACC-257 melanoma
[41] = system: SK-OV-3 ovarian
[42] = system: UACC-62 melanoma
[43] = system: PC-3 prostate
[44] = system: UO-31 renal
[45] = system: KM12 colon
[46] = system: IGROV1 ovarian
[47] = system: TK-10 renal
[48] = system: HS 578T breast
[49] = system: SN12C renal
[50] = system: U251 CNS
[51] = system: HCC-2998 colon
[52] = system: NCI-H522 lung
[53] = system: CCRF-CEM leukemia
[54] = system: EKVX NSCLC

Work on `O=S(=O)(NCCCNc1nccc(-c2[nH]c(-c3ccccc3)nc2-c2ccc(F)c(O)c2)n1)c1ccc(C(F)(F)F)cc1` yielded a GI50 [1] of 2000 nM, a TGI [1] of 3.85 µM and a GI50 [2] of 2850 nM. The TGI [2] was 8.78 µM, the GI50 [3] was 1690 nM and the TGI [3] was 3.23 µM. The GI50 [4] was 1880 nM, the TGI [4] was 3.58 µM and the GI50 [5] was 3.52 µM. It also gave a TGI [5] of 11.7 µM, a GI50 [6] of 1460 nM and a TGI [6] of 4.09 µM. For the same compound, the GI50 [7] was 2180 nM, the TGI [7] was 5.11 µM and the GI50 [8] was 2550 nM. It also gave a TGI [8] of 7.25 µM, a GI50 [9] of 2890 nM and a TGI [9] of 10.9 µM. It also gave a GI50 [10] of 3.06 µM, a TGI [10] of 11.5 µM and a GI50 [11] of 3.51 µM. For the same compound, the TGI [11] was 11.1 µM, the GI50 [12] was 3.02 µM and the TGI [12] was > 100 µM. The GI50 [13] was 4.09 µM, the TGI [13] was 15 µM and the GI50 [14] was 2530 nM. For the same compound, the TGI [14] was 7.12 µM, the GI50 [15] was 3.85 µM and the TGI [15] was 16.7 µM. The GI50 [16] was 2570 nM, the TGI [16] was 13.8 µM and the GI50 [17] was 2680 nM. It also gave a TGI [17] of 7.38 µM, a GI50 [18] of 1610 nM and a TGI [18] of 4.46 µM. For the same compound, the GI50 [19] was 2220 nM, the TGI [19] was 7.79 µM and the GI50 [20] was 2560 nM. The TGI [20] was 22 µM, the GI50 [21] was 2260 nM and the TGI [21] was 5.07 µM. For the same compound, the GI50 [22] was 2010 nM, the TGI [22] was 4.78 µM and the GI50 [23] was 3.06 µM. The TGI [23] was 9.77 µM, the GI50 [24] was 1590 nM and the TGI [24] was 3.7 µM. For the same compound, the GI50 [25] was 3.04 µM, the TGI [25] was 9.62 µM and the GI50 [26] was 2300 nM. It also gave a TGI [26] of 5 µM, a GI50 [27] of 2150 nM and a TGI [27] of 9.16 µM. For the same compound, the GI50 [28] was 3.04 µM, the TGI [28] was 12.4 µM and the GI50 [29] was 2620 nM. The TGI [29] was 5.49 µM, the GI50 [30] was 2960 nM and the GI50 [31] was 2870 nM. The TGI [31] was > 100 µM, the GI50 [32] was 3.88 µM and the TGI [32] was 18.9 µM. It also gave a GI50 [33] of 2750 nM, a TGI [33] of 8.44 µM and a GI50 [34] of 3.37 µM. For the same compound, the TGI [34] was > 100 µM, the GI50 [35] was 3.12 µM and the TGI [35] was 9.26 µM. For the same compound, the GI50 [36] was 2820 nM, the TGI [36] was 10.4 µM and the GI50 [37] was 1210 nM. It also gave a TGI [37] of 3.47 µM, a GI50 [38] of 2490 nM and a TGI [38] of 7.05 µM. The GI50 [39] was 3.62 µM, the TGI [39] was 24.1 µM and the GI50 [40] was 2480 nM. For the same compound, the TGI [40] was 7.33 µM, the GI50 [41] was 3.46 µM and the TGI [41] was 18.8 µM. The GI50 [42] was 1290 nM, the TGI [42] was 2820 nM and the GI50 [43] was 3.08 µM. The TGI [43] was > 100 µM, the GI50 [44] was 2690 nM and the TGI [44] was 7.17 µM. For the same compound, the GI50 [45] was 3.05 µM, the TGI [45] was 9.09 µM and the GI50 [46] was 2410 nM. The TGI [46] was 6.72 µM, the GI50 [47] was 3.79 µM and the TGI [47] was 28.1 µM. The GI50 [48] was 2710 nM, the TGI [48] was 7.12 µM and the GI50 [49] was 2590 nM. For the same compound, the TGI [49] was 7.62 µM, the GI50 [50] was 3.15 µM and the TGI [50] was 9.85 µM. The GI50 [51] was 2800 nM, the TGI [51] was 6.53 µM and the GI50 [52] was 2420 nM. The TGI [52] was 7.12 µM, the GI50 [53] was 3.46 µM and the TGI [53] was > 100 µM. For the same compound, the GI50 [54] was 3.61 µM and the TGI [54] was 16 µM.
